# “And” between values parts separate entries of the source, which are not always exact repeats. Equal entries are not always repeated.
# Experiments:
# SARS-CoV-2 = assay: microbe, parasite or virus in culture; type: cell-based; details: for virus titer Mean (%): mean of Exp.1-3
# [1] = molecular target: Zika Virus NS2B/NS3 (bZiPro) (Zika virus, UniProt A0A024B7W1); assay: Zika virus protease inhibition, fluorometric assay; type: biochemical; details: 20 μM
# SARS-CoV-2 M^pro [2] = molecular target: T1, SARS-CoV-2 M^pro (Severe acute respiratory syndrome coronavirus 2, UniProt P0DTD1); assay: biochemical; details: M^pro from pMal-M^pro vector
# SARS-CoV-2 M^pro [3] = molecular target: T1, SARS-CoV-2 M^pro; assay: Mpro FRET inhibition, continuous fluorometric assay (Fluorolog-3), enzyme from pET21-M^pro vector; type: biochemical; details: read-out: Ki (μM)^b
# [4] = molecular target: human matriptase (MT-SP1) (Homo sapiens, UniProt Q9Y5Y6); assay: Matriptase inhibition, fluorometric assay; type: biochemical; details: 20 μM
# human matriptase (MT-SP1), sequence (Q9Y5Y6 615-855 limits assumed, other chains not shown): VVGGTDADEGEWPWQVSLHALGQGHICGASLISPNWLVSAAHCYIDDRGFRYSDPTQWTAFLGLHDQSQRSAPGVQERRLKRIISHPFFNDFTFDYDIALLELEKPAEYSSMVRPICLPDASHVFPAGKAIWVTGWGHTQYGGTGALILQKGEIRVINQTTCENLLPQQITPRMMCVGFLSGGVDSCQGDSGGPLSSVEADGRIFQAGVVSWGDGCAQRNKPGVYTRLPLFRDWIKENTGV
# M^pro [5] = molecular target: T2, M^pro (Severe acute respiratory syndrome coronavirus 2, UniProt P0DTD1); assay: Binding to M^pro by ultracentrifugation (sedimentation method)
# M^pro [6] = molecular target: T2, M^pro; assay: biochemical; type: binding
# cathepsin L (CatL) = molecular target: T3, cathepsin L (CatL) (Homo sapiens, UniProt P07711); assay: Cathepsin L inhibition, fluorometric assay; type: biochemical; details: read-out: Ki CatL
# T3 construct: purchased Calbiochem (Merck Millipore)
# T3 sequence (P07711 114-288 limits assumed): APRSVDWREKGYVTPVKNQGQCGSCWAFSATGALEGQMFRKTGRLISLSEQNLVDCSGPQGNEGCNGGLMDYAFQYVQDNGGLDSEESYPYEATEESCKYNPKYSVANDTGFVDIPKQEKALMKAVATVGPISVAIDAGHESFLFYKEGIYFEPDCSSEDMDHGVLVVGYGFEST
# T3 sequence (P07711 292-333 limits assumed): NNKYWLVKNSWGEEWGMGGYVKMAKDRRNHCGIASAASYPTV
# [7] = logP determination by HPLC; type: physicochemical; details: HPLC retention time
# Procedure: experimental logP was determined. After unsuccessful evaluation by a classical extraction method
# for determination, an HPLC-based estimation of hydrophobicity by retention time was utilized.
# Following a publication60, a set of 9 compounds was chosen for preparing a calibration curve of
# hydrophobicity indices and logPs.
# λ = 254 nm, n = 1). Calibration of hydrophobicity was performed with a mixture of thiourea (Merck
# Fisher Scientific, A12727.AP), Indole (Sigma Aldrich, W259306), Butyrophenone (Merck
# 1 mg/mL each in 50:50 [50 mM NH4OAc buffer pH 7.2/ACN]60 (n = 1). Analysis was performed
# was used for elution with a binary pump using [50 mM NH4OAc buffer pH 7.2/ACN] (1 mL/min):
# For calculation of unknown logP with this method, the following equation is used:
# Signals at 6 and >14 min are due to impurities from
# column that are detected in all measurements and are therefore not taken into account.
# Zika Virus NS2B/NS3 (bZiPro), sequence (A0A024B7W1 1425-1464): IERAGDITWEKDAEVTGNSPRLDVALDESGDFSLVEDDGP
# Zika Virus NS2B/NS3 (bZiPro), sequence (A0A024B7W1 1503-1680): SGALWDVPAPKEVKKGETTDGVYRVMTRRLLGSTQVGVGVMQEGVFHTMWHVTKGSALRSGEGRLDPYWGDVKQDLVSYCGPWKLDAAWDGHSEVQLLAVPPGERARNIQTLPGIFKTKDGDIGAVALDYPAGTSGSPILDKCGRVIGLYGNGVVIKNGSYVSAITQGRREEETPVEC
structure (smiles),measurement,setting,value
COc1cccc2[nH]c(C(=O)N[C@@H](CC(C)C)C(=O)N[C@H](/C=C/[N+](=O)[O-])C[C@@H]3CCNC3=O)cc12 [FGA146],EC50,"SARS-CoV-2; Huh-7-ACE2, 24h p.t., […]",900 nM
same,virus titer Mean (%),SARS-CoV-2; conc 0.1,133.333%
same,virus titer Mean (%),SARS-CoV-2; conc 0.5,86.6667%
same,virus titer (%) of conc 0,"SARS-CoV-2; conc 0.5, single experiments",100% and 60%
same,virus titer (pfu/ml),"SARS-CoV-2; conc 0.5, single experiments",1000000 pfu/ml and 1200000 pfu/ml
same,virus titer Mean (%),SARS-CoV-2; conc 1,22.5%
same,virus titer Mean (%),SARS-CoV-2; conc 5,0.1667%
same,virus titer (%) of conc 0,"SARS-CoV-2; conc 5, single experiments",0.4% and 0.04% and 0.06%
same,virus titer Mean (%),SARS-CoV-2; conc 10,0.1023%
same,virus titer (%) of conc 0,"SARS-CoV-2; conc 10, single experiments",0.12% and 0.18% and 0.007%
same,virus titer Mean (%),SARS-CoV-2; conc 50,0.02533%
same,virus titer (%) of conc 0,"SARS-CoV-2; conc 50, single experiments",0.06% and 0.014% and 0.002%
same,virus titer Mean (%),SARS-CoV-2; conc 100,0.02033%
same,virus titer (%) of conc 0,"SARS-CoV-2; conc 100, single experiments",0.04% and 0.018% and 0.003%
same,bZiPro,[1],n.i. (no inhibition (<10%) was observed at a concentration of 20 μM)
same,Ki,SARS-CoV-2 M^pro [2],2.19 ± 0.18 µM
same,Ki,SARS-CoV-2 M^pro [3],0.96 ± 0.06 µM
same,MT-SP1,[4],n.i. (no inhibition (<10%) was observed at a concentration of 20 μM)
same,"Fraction bound, Absorption",M^pro [5]; ligand concentration 0.1,0.00706
same,"Fraction bound, Fluorescence",M^pro [5]; ligand concentration 0.1,0.00606
same,"Fraction bound, Absorption",M^pro [5]; ligand concentration 0.5,0.0199
same,"Fraction bound, Fluorescence",M^pro [5]; ligand concentration 0.5,0.0299
same,"Fraction bound, Absorption",M^pro [5]; ligand concentration 1,0.07275
same,"Fraction bound, Fluorescence",M^pro [5]; ligand concentration 1,0.06275
same,"Fraction bound, Absorption",M^pro [5]; ligand concentration 5,0.3362
same,"Fraction bound, Fluorescence",M^pro [5]; ligand concentration 5,0.3162
same,"Fraction bound, Absorption",M^pro [5]; ligand concentration 10,0.6468
same,"Fraction bound, Fluorescence",M^pro [5]; ligand concentration 10,0.623
same,"Fraction bound, Absorption",M^pro [5]; ligand concentration 25,0.9146
same,"Fraction bound, Fluorescence",M^pro [5]; ligand concentration 25,0.8218
same,"Fraction bound, Absorption",M^pro [5]; ligand concentration 50,0.9678
same,"Fraction bound, Fluorescence",M^pro [5]; ligand concentration 50,0.9995
same,"Fraction bound, Absorption",M^pro [5]; ligand concentration 100,1.004
same,"Fraction bound, Fluorescence",M^pro [5]; ligand concentration 100,0.9916
same,Kd,"M^pro [5]; ultracentrifugation, 25 °C",7280 ± 580 nM
same,Tm of M^pro,M^pro [6],45.0 ± 0.2 °C and 42.8 ± 0.1 °C
same,DTm (°C),M^pro [6]; 25 mM,-4.2 °C
same,Fraction unfolded,"M^pro [6]; 25 mM, 21.5 °C",-0.01003
same,Fraction unfolded,"M^pro [6]; 25 mM, 22 °C",-0.02886
same,Fraction unfolded,"M^pro [6]; 25 mM, 22.5 °C",-0.03599
same,Fraction unfolded,"M^pro [6]; 25 mM, 23 °C",-0.01149
same,Fraction unfolded,"M^pro [6]; 25 mM, 23.5 °C",0.01389
same,Fraction unfolded,"M^pro [6]; 25 mM, 24 °C",0.08488
same,Fraction unfolded,"M^pro [6]; 25 mM, 24.5 °C",0.03781
same,Fraction unfolded,"M^pro [6]; 25 mM, 25 °C",-0.07553
same,Fraction unfolded,"M^pro [6]; 25 mM, 25.5 °C",0.01064
same,Fraction unfolded,"M^pro [6]; 25 mM, 26 °C",0.08908
same,Fraction unfolded,"M^pro [6]; 25 mM, 26.5 °C",0.04267
same,Fraction unfolded,"M^pro [6]; 25 mM, 27 °C",-0.01602
same,Fraction unfolded,"M^pro [6]; 25 mM, 27.5 °C",0.0059
same,Fraction unfolded,"M^pro [6]; 25 mM, 28 °C",-0.0719
same,Fraction unfolded,"M^pro [6]; 25 mM, 28.5 °C",0.01153
same,Fraction unfolded,"M^pro [6]; 25 mM, 29 °C",-0.09309
same,Fraction unfolded,"M^pro [6]; 25 mM, 29.5 °C",-0.02786
same,Fraction unfolded,"M^pro [6]; 25 mM, 30 °C",-0.01911
same,Fraction unfolded,"M^pro [6]; 25 mM, 30.5 °C",0.07168
same,Fraction unfolded,"M^pro [6]; 25 mM, 31 °C",0.0139
same,Fraction unfolded,"M^pro [6]; 25 mM, 32 °C",-0.02402
same,Fraction unfolded,"M^pro [6]; 25 mM, 32.5 °C",0.02054
same,Fraction unfolded,"M^pro [6]; 25 mM, 66.5 °C",0.9674
same,Fraction unfolded,"M^pro [6]; 25 mM, 67 °C",1.009
same,Fraction unfolded,"M^pro [6]; 25 mM, 67.5 °C",1.012
same,Fraction unfolded,"M^pro [6]; 25 mM, 68 °C",1.038
same,Fraction unfolded,"M^pro [6]; 25 mM, 68.5 °C",1.026
same,Fraction unfolded,"M^pro [6]; 25 mM, 69 °C",1.004
same,Fraction unfolded,"M^pro [6]; 25 mM, 69.5 °C",1.031
same,Fraction unfolded,"M^pro [6]; 25 mM, 70 °C",1.005
same,Fraction unfolded,"M^pro [6]; 25 mM, 70.5 °C",0.9826
same,Fraction unfolded,"M^pro [6]; 25 mM, 71 °C",1.014
same,Fraction unfolded,"M^pro [6]; 25 mM, 71.5 °C",1.05
same,Fraction unfolded,"M^pro [6]; 25 mM, 72 °C",1.03
same,Fraction unfolded,"M^pro [6]; 25 mM, 72.5 °C",1.006
same,Fraction unfolded,"M^pro [6]; 25 mM, 73 °C",1.029
same,Fraction unfolded,"M^pro [6]; 25 mM, 73.5 °C",0.9779
same,Fraction unfolded,"M^pro [6]; 25 mM, 74 °C",1.013
same,Fraction unfolded,"M^pro [6]; 25 mM, 74.5 °C",1.064
same,Fraction unfolded,"M^pro [6]; 25 mM, 75 °C",1.029
same,Fraction unfolded,"M^pro [6]; 25 mM, 75.5 °C",1.031
same,Fraction unfolded,"M^pro [6]; 25 mM, 76 °C",1.031
same,Fraction unfolded,"M^pro [6]; 25 mM, 76.5 °C",0.9806
same,Fraction unfolded,"M^pro [6]; 25 mM, 77 °C",1.015
same,Fraction unfolded,"M^pro [6]; 25 mM, 77.5 °C",1.011
same,Fraction unfolded,"M^pro [6]; 25 mM, 78 °C",1.0092
same,Fraction unfolded,"M^pro [6]; 25 mM, 78.5 °C",1.012
same,Fraction unfolded,"M^pro [6]; 25 mM, 79 °C",1.059
same,Fraction unfolded,"M^pro [6]; 25 mM, 79.5 °C",0.9461
same,Fraction unfolded,"M^pro [6]; 25 mM, 80 °C",1.0063
same,DTm (°C),M^pro [6]; 100 mM,-6.4 °C
same,Fraction unfolded,"M^pro [6]; 100 mM, 21.5 °C",-0.0719
same,Fraction unfolded,"M^pro [6]; 100 mM, 22 °C",0.01153
same,Fraction unfolded,"M^pro [6]; 100 mM, 22.5 °C",-0.09309
same,Fraction unfolded,"M^pro [6]; 100 mM, 23 °C",-0.02786
same,Fraction unfolded,"M^pro [6]; 100 mM, 23.5 °C",-0.01911
same,Fraction unfolded,"M^pro [6]; 100 mM, 24 °C",0.07168
same,Fraction unfolded,"M^pro [6]; 100 mM, 24.5 °C",0.0139
same,Fraction unfolded,"M^pro [6]; 100 mM, 25 °C",0.01178
same,Fraction unfolded,"M^pro [6]; 100 mM, 25.5 °C",-0.02402
same,Fraction unfolded,"M^pro [6]; 100 mM, 26 °C",0.02054
same,Fraction unfolded,"M^pro [6]; 100 mM, 26.5 °C",0.0786
same,Fraction unfolded,"M^pro [6]; 100 mM, 27 °C",-0.05017
same,Fraction unfolded,"M^pro [6]; 100 mM, 27.5 °C",-0.00904
same,Fraction unfolded,"M^pro [6]; 100 mM, 28 °C",-0.01003
same,Fraction unfolded,"M^pro [6]; 100 mM, 28.5 °C",-0.02886
same,Fraction unfolded,"M^pro [6]; 100 mM, 29 °C",-0.03599
same,Fraction unfolded,"M^pro [6]; 100 mM, 29.5 °C",-0.01149
same,Fraction unfolded,"M^pro [6]; 100 mM, 30 °C",0.01389
same,Fraction unfolded,"M^pro [6]; 100 mM, 30.5 °C",0.08488
same,Fraction unfolded,"M^pro [6]; 100 mM, 31 °C",0.03781
same,Fraction unfolded,"M^pro [6]; 100 mM, 32 °C",0.01064
same,Fraction unfolded,"M^pro [6]; 100 mM, 32.5 °C",0.08908
same,Fraction unfolded,"M^pro [6]; 100 mM, 66.5 °C",1.038
same,Fraction unfolded,"M^pro [6]; 100 mM, 67 °C",1.026
same,Fraction unfolded,"M^pro [6]; 100 mM, 67.5 °C",1.004
same,Fraction unfolded,"M^pro [6]; 100 mM, 68 °C",1.031
same,Fraction unfolded,"M^pro [6]; 100 mM, 68.5 °C",1.005
same,Fraction unfolded,"M^pro [6]; 100 mM, 69 °C",0.9826
same,Fraction unfolded,"M^pro [6]; 100 mM, 69.5 °C",1.014
same,Fraction unfolded,"M^pro [6]; 100 mM, 70 °C",1.04
same,Fraction unfolded,"M^pro [6]; 100 mM, 70.5 °C",0.9664
same,Fraction unfolded,"M^pro [6]; 100 mM, 71 °C",0.9851
same,Fraction unfolded,"M^pro [6]; 100 mM, 71.5 °C",0.9877
same,Fraction unfolded,"M^pro [6]; 100 mM, 72 °C",0.9881
same,Fraction unfolded,"M^pro [6]; 100 mM, 72.5 °C",1.095
same,Fraction unfolded,"M^pro [6]; 100 mM, 73 °C",0.9972
same,Fraction unfolded,"M^pro [6]; 100 mM, 73.5 °C",1.057
same,Fraction unfolded,"M^pro [6]; 100 mM, 74 °C",0.8905
same,Fraction unfolded,"M^pro [6]; 100 mM, 74.5 °C",1.0309
same,Fraction unfolded,"M^pro [6]; 100 mM, 75 °C",0.9492
same,Fraction unfolded,"M^pro [6]; 100 mM, 75.5 °C",0.9161
same,Fraction unfolded,"M^pro [6]; 100 mM, 76 °C",1.007
same,Fraction unfolded,"M^pro [6]; 100 mM, 76.5 °C",1.02
same,Fraction unfolded,"M^pro [6]; 100 mM, 77 °C",1.017
same,Fraction unfolded,"M^pro [6]; 100 mM, 77.5 °C",1.029
same,Fraction unfolded,"M^pro [6]; 100 mM, 78 °C",1.021
same,Fraction unfolded,"M^pro [6]; 100 mM, 78.5 °C",1.059
same,Fraction unfolded,"M^pro [6]; 100 mM, 79 °C",0.9805
same,Fraction unfolded,"M^pro [6]; 100 mM, 79.5 °C",0.9855
same,Fraction unfolded,"M^pro [6]; 100 mM, 80 °C",1.001
same,Ki,cathepsin L (CatL),868 ± 60 nM
same,logPexp,[7],2.0
